The results in this text go back to patent US20240018132A1, “5-HYDROXY-1,4-NAPHTHALENEDIONE FOR USE IN THE TREATMENT OF CANCER” (GODAVARI BIOREFINERIES LIMITED, priority 2020, published 2024).

In general, IC50 refers to the concentration that inhibits the measured activity by half. The viability is a per cent measure of how many cells are alive, often set against a control.

Test [1] relates to MDAMB231. The test is described as follows: In vitro antiproliferative assay (MTT assay), breast cancer cell line. Particulars: Homo sapiens. It counts as cell-based. As to the method: (§1) MTT assay is a simple and sensitive assay where, metabolic reducing activity of the cells is measured. The increase of this activity in time is taken as a parameter of cell growth. If treatment with a drug impairs this increase, the action is a consequence of growth inhibition, cell killing or both. […] All cell lines were cultured in a 37° C. incubator with a 5% CO2 environment. Compounds were dissolved in DMSO with a concentration of 0.1M (stock solution). Cells were seeded into 96-well plates at suitable plating efficiency.
(§2) Following plating efficiencies were standardized for MTT assay:
(§3) In the MTT procedure, the cells were plated in 96 well plates as per predetermined plating efficiency (Table1). The plates were then incubated for 24 hrs in 5% CO2 atmosphere at 37° C. Appropriate concentrations of the drugs were then added to the plate and further incubation was carried out for 48 hrs (in 5% CO2 atmosphere at 37° C.). The assay plate was then centrifuged twice at 3000 rpm for 3 mins and supernatant was then discarded. 100 ul of MTT solution (0.5 mg/ml) was then added to each well of the plate and it was further incubated for 4 hrs (in 5% CO2 atmosphere at 37° C.) Following 4 hr incubation, the plate was then centrifuged twice, and supernatant was aspirated off very carefully. 200 ul of DMSO was then added to each well to solubilize. MTT crystals and mixed well by shaking the plate. XY graph of log percent viability was then plotted against log drug concentration.
For orientation: Tetrazolium dyes change colour on reduction, which living cells bring about.

In test [2] the test system is PC3. Briefly: In vitro antiproliferative assay (MTT assay), prostate cancer cell line. The class given is cell-based. Particulars: Homo sapiens. As for the experimental part:
as §1, §2, §3

Test [3] concerns MDAMB231. Briefly: In vitro sphere-forming assay (cancer stem cells), Mammosphere media. The settings on record: for 3D sphere count of MDAMB231: Mammosphere media, 2000 cells/well, n = 6 ± S.D.
Test [4] has as its system PC3. The test is described as follows: In vitro sphere-forming assay (cancer stem cells), Prostosphere media. The settings on record: for 3D sphere count of PC3: Prostosphere media, 2000 cells/well, n = 6 ± S.D.
Experimental: In Vitro Sphere-forming Assay: Sphere assay measures the ability of cancer stem cells (CSCs) to form spheres in specially designed serum-free medium.
Prostosphere Media Preparation (For 100 mL):1 g methyl cellulose autoclaved with magnetic stirrer, 100 mL plain media (Prostate Epithelial Basal Medium) was added and dissolved, under magnetic stirring. After complete dissolution, Insulin-40 μL, B27-2 mL, EGF-80 μL, Penstrep-1 ml was added.
Procedure—The cells were trypsinised and made into single-cell suspension by passing through cell strainers (100 μl and 40 μl, respectively), The cells were diluted at a concentration of 2000 cells/100 μL and suspended in either Mammosphere (for breast cell lines) or Prostosphere (for prostate cell lines). 100 μL of this suspension was added into each well of 96-well suspension plates and incubated at 37° C., 5% CO2 for 24 hrs. Appropriate concentrations of the drugs (2 μL) were added into respective wells with 100 μL of stem cell culture medium. Plates were incubated at 37° C., 50 CO2 for 72 hrs. After incubation, 2.5 μL of the respective drug concentration and 50 μL of stem cell culture medium were added into each well and the plates were further incubated at 37° C., 50% CO2 for 72 hrs. 3 μL of the respective drug concentration was added with 50 μL of stem cell culture medium again after incubation and plates were reincubated for 72 hrs at 37° C., 50 CO2. Number of primary spheres formed for each concentration were counted. The spheres were converted to 0 viability of spheres compared to untreated (Growth Control with DMSO, GCD).
[5] abbreviates: MDA-MB-231, MTT assay, MDAMB231.
The mark [6] stands for this setting: Homo sapiens, MDA-MB-231, read-out: % Viability of spheres (MDAMB231).
Where [7] appears, read: MDA-MB-231, 48 h, MTT assay, breast cancer MDAMB231, 48 hrs drug incubation.
The mark [8] stands for this setting: PC-3, 48 h, MTT assay, prostate cancer PC3, 48 hrs drug incubation.
Where [9] appears, read: Homo sapiens, PC-3, read-out: % Viability of spheres (PC3).

In the case of `COc1ccc(OC2=CC(=O)c3c(OCCCCN4CCOCC4)cccc3C2=O)cc1` [Formula 85], the IC50 in test [1] (setting [5]) was found to be 4140 nM; in test [2] (PC-3, MTT assay, PC3), 2360 nM.
With `O=C1C=C(Oc2ccc3c(c2)OCO3)C(=O)c2c(OCCN3CCOCC3)cccc21` [Formula 79, 8-(2-morpholinoethoxy)-2-(benzo[d][1,3]dioxol-6-yloxy)naphthalene-1,4-dione], the values for the viability at 0.0025 µM in test [3] (setting [6]) and in test [4] (setting [9]) were 76% and 78%, respectively. Moreover, the viability at 0.025 µM came to 56% in test [3] (setting [6]) and 57% in test [4] (setting [9]). For the same molecule, the viability at 0.25 µM was found to be 39% in test [3] (setting [6]) and 43% in test [4] (setting [9]). Besides, the viability at 2.5 µM is 26% in test [3] (setting [6]) and 30% in test [4] (setting [9]). The viability at 25 µM was found to be 19% in test [3] (setting [6]) and 20% in test [4] (setting [9]). The “3D sphere count of MDAMB231” value is 69(±3) in test [3] (drug 0.0025 uM); 51(±3) in test [3] (drug 0.025 uM); 35(±3) in test [3] (drug 0.25 uM); 24(±3) in test [3] (drug 2.5 uM); 17(±3) in test [3] (drug 25 uM). The IC50 in test [1] (setting [7]) was found to be 502 nM; in test [2] (setting [8]), 527 nM. The “3D sphere count of PC3” value is 65(±4) in test [4] (drug 0.0025 uM); 55(±3) in test [4] (drug 0.025 uM); 43(±3) in test [4] (drug 0.25 uM); 33(±3) in test [4] (drug 2.5 uM); 24(±4) in test [4] (drug 25 uM).
For the molecule `O=C1C(Oc2ccc(F)c(F)c2)=CC(=O)c2c(OCCN3CCOCC3)cccc21` [Formula 76], the viability at 0.0025 µM in test [3] (setting [6]) worked out at 82%; in test [4] (setting [9]), 86%. In addition, the viability at 0.025 µM in test [3] (setting [6]) came to 67%; in test [4] (setting [9]), 72%. Further, the viability at 0.25 µM in test [3] (setting [6]) came to 56%; in test [4] (setting [9]), 55%. The viability at 2.5 µM in test [3] (setting [6]) was 40%; in test [4] (setting [9]), 38%. In addition, the viability at 25 µM in test [3] (setting [6]) worked out at 29%; in test [4] (setting [9]) it was 28%. The “3D sphere count of MDAMB231” value in test [3] (drug 0.0025 uM) is 74(±3); in test [3] (drug 0.025 uM), 61(±2); in test [3] (drug 0.25 uM), 51(±3); in test [3] (drug 2.5 uM) it was 36(±3); in test [3] (drug 25 uM), 26(±4). In addition, the IC50 stood at 2480 nM in test [1] (setting [7]) and 324 nM in test [2] (setting [8]). Moreover, the “3D sphere count of PC3” value is listed as 69(±3) in test [4] (drug 0.0025 uM); 58(±4) in test [4] (drug 0.025 uM); 44(±4) in test [4] (drug 0.25 uM); 31(±3) in test [4] (drug 2.5 uM); 23(±3) in test [4] (drug 25 uM).
As for `O=C1C(c2ccc(F)cc2)=CC(=O)c2c(OCCN3CCOCC3)cccc21` [Formula 7, 5-(2-morpholinoethoxy)-2-(4-fluorophenyl) naphthalene-1,4-dione], the viability at 0.025 µM in test [3] (setting [6]) was found to be 83%; in test [4] (setting [9]) it was 71%. Also, the viability at 0.25 µM was found to be 60% in test [3] (setting [6]) and 50% in test [4] (setting [9]). The viability at 2.5 µM was 43% in test [3] (setting [6]) and 35% in test [4] (setting [9]). Moreover, the viability at 25 µM was 31% in test [3] (setting [6]) and 21% in test [4] (setting [9]). Further, the viability at 250 µM in test [3] (setting [6]) was 15%; in test [4] (setting [9]), 11%. In addition, the “3D sphere count of MDAMB231” value is 59(±3) in test [3] (drug 0.025 uM); 43(±3) in test [3] (drug 0.25 uM); 31(±3) in test [3] (drug 2.5 uM); 22(±3) in test [3] (drug 25 uM); 11(±3) in test [3] (drug 250 uM). Further, the IC50 in test [1] (setting [7]) worked out at 451 nM; in test [2] (setting [8]), 246 nM. For the same molecule, the “3D sphere count of PC3” value in test [4] (drug 0.025 uM) is given as 57(±3); in test [4] (drug 0.25 uM), 40(±3); in test [4] (drug 2.5 uM) it was 28(±2); in test [4] (drug 25 uM), 17(±3); in test [4] (drug 250 uM), 9(±2).
Take `O=C1C=C(Oc2ccc(F)cc2)C(=O)c2c(OCCN3CCOCC3)cccc21` [Formula 80, 8-(2-morpholinoethoxy)-2-(4fluorophenoxy)naphthalene-1,4-dione]: the viability at 0.0025 µM in test [3] (setting [6]) is 75%; in test [4] (setting [9]), 73%. Moreover, the viability at 0.025 µM in test [3] (setting [6]) turned out to be 53%; in test [4] (setting [9]) it was 56%. Also, the values for the viability at 0.25 µM in test [3] (setting [6]) and in test [4] (setting [9]) were 39% and 37%, respectively. Moreover, the values for the viability at 2.5 µM in test [3] (setting [6]) and in test [4] (setting [9]) were 23% and 27%, respectively. In addition, the viability at 25 µM in test [3] (setting [6]) was determined as 15%; in test [4] (setting [9]), 17%. Besides, the “3D sphere count of MDAMB231” value in test [3] (drug 0.0025 uM) is listed as 68(±4); in test [3] (drug 0.025 uM) it was 48(±3); in test [3] (drug 0.25 uM), 35(±4); in test [3] (drug 2.5 uM) it was 21(±3); in test [3] (drug 25 uM), 14(±4). The IC50 in test [1] (setting [7]) turned out to be 352 nM; in test [2] (setting [8]) it was 482 nM. Besides, the “3D sphere count of PC3” value was 59(±3) in test [4] (drug 0.0025 uM); 45(±3) in test [4] (drug 0.025 uM); 30(±2) in test [4] (drug 0.25 uM); 22(±4) in test [4] (drug 2.5 uM); 14(±3) in test [4] (drug 25 uM).
With `O=C1C(Oc2ccc(F)cc2)=CC(=O)c2c(OCCN3CCOCC3)cccc21` [Formula 75, 5-(2-morpholinoethoxy)-2-(4-fluorophenoxy) naphthalene-1,4-dione], the viability at 0.0025 µM stood at 80% in test [3] (setting [6]) and 82% in test [4] (setting [9]). Moreover, the viability at 0.025 µM in test [3] (setting [6]) is 56%; in test [4] (setting [9]), 57%. Moreover, the viability at 0.25 µM came to 45% in test [3] (setting [6]) and 47% in test [4] (setting [9]). Also, the viability at 2.5 µM turned out to be 32% in test [3] (setting [6]) and 33% in test [4] (setting [9]). The viability at 25 µM was found to be 17% in test [3] (setting [6]) and 20% in test [4] (setting [9]). Besides, the “3D sphere count of MDAMB231” value in test [3] (drug 0.0025 uM) was 64(±3); in test [3] (drug 0.025 uM), 45(±3); in test [3] (drug 0.25 uM) it was 36(±4); in test [3] (drug 2.5 uM), 26(±3); in test [3] (drug 25 uM), 14(±3). Besides, the IC50 in test [1] (setting [7]) is 566 nM; in test [2] (setting [8]), 306 nM. In addition, the “3D sphere count of PC3” value was 66(±4) in test [4] (drug 0.0025 uM); 46(±4) in test [4] (drug 0.025 uM); 38(±3) in test [4] (drug 0.25 uM); 27(±3) in test [4] (drug 2.5 uM); 16(±2) in test [4] (drug 25 uM).
Regarding `COc1ccc(OC2=CC(=O)c3c(OCCN4CCCCC4)cccc3C2=O)cc1` [Formula 84], the IC50 stood at 562 nM in test [1] (setting [5]) and 492 nM in test [2] (PC-3, MTT assay, PC3).
